Assay results reported in patent US20080241177A1 (priority 2003, published 2008).

Tests used:
serum antibodies [1] = test: Immunization of sheep with the vaccine, anti-peptide ELISA; details: for Polyclonal sera with reactivity to peptide obtained from immunized sheep: 200 μg peptide mixture in CpG DNA adjuvant, prime and boost
PBMCs [2] = test: CFSE proliferation assay; type: cell-based, human; details: subject 016, visit 5
PBMCs [3] = test: (3H)-thymidine proliferation assay; type: cell-based, human; details: for stimulation index: 10 μg/ml peptide
Method: FIG. 4. Cell-mediated response to peptide 5 in trial subject 016, measured over the course of the vaccination schedule. Patient PBMCs were stimulated with 10 μg/ml peptide 5, incubated in vitro for 6 days, pulsed with ^3H-thymidine for 18 hours and then proliferation was assessed by ^3H-thymidine incorporation.
Peripheral blood mononuclear cells (PBMCs) were plated at a concentration of 1×10^5 cells/well for thymidine proliferation and ELISpot assays and at 1×10^6 cells/well (24 well plates) for the CFSE proliferation assay. ELISpot plates were coated with mouse anti-human IFN-γ antibody (Diaclone, France) and cells for CFSE assay were stained with 5 μM CFSE-FITC (Molecular Probes, Eugene, Oreg.). All PBMCs were in RPMI supplemented with 2 mM L-glutamine, 10 mM HEPES, 100 U/mL penicillin/streptomycin and 10% human AB serum (Australian Red Cross Blood Service).
The recall antigens CMV lysate, (1/2000 dilution; BioWhittaker, Walkersville, Md.) and tetanus toxoid (2.5 Lfu/ml; CSL) were also tested. PBMCs were incubated at 37° C. and 5% CO2 atmosphere for 20 hours (ELISpot) or 6 days (proliferation assays).
In the thymidine proliferation assay, cells were pulsed with 0.5 μCi/well [methyl-^3H]-thymidine (Amersham, Buckinghamshire, UK) and harvested 18 hours later. [^3H]-thymidine incorporation was measured by liquid scintillation counting. A sample was considered to be positive when the stimulation index^22 for each well in the quadruplicate sample exceeded the mean of unstimulated cells by at least three standard deviations.

serum antibodies [4] = test: ELISA for serum antibodies specific for the individual vaccine peptides, human sera; details: for Number of individuals with a humoral response to the vaccine peptides, Normal controls n = 30 / Percent of individuals with a humoral response to the vaccine peptides, Normal controls n = 30: n = 30, not vaccinated
[5] = Delayed type hypersensitivity (DTH) testing; type: in vivo, human; details: for Induration area, DTH testing: 48 hours following intradermal injection of individual peptide, after four vaccinations; for Number of patients with a peptide-specific DTH response: six trial patients who underwent DTH testing
Method: Delayed type hypersensitivity (DTH) testing was carried out 1 month after the final vaccination. […] Induration of […]10 mm^2 at 48 hours after injection was considered positive.

[6] = patient 016, visit 5 (1 month after vaccination 4)
[7] = non-trial cancer controls, n = 54, sera 1:25 dilution
[8] = trial subjects who completed four vaccinations, n = 6, detectable response at any time point considered positive

Q: Which “Serum antibody titres, first versus second immunized sheep” value (serum antibodies [1]; two sheep) does the source give for “H-LEWVGFIRSKAYGAATAYAASMKGRVTI-OH [Peptide 5, Heavy CDR2 of human anti-p53 antibody with central domain specificity]” here?
A: equivalent

Q: And the “Polyclonal sera with reactivity to peptide obtained from immunized sheep” value (serum antibodies [1]; two sheep)?
A: obtained from both sheep

Q: What about the “Specific proliferative response, % of circulating CD3 and CD4 positive cells” value (PBMCs [2]) of the same substance?
A: 5.5%

Q: And the stimulation index (PBMCs [3]; patient 016, visit 3 (1 month after vaccination 2))?
A: 8.88

Q: What about the stimulation index (PBMCs [3]; patient 016, visit 4 (1 month after vaccination 3)) of the same substance?
A: 64.6

Q: And the stimulation index (PBMCs [3]; [6])?
A: 22.2

Q: What about the “First appearance of peptide-specific proliferative response” value (PBMCs [3]; patient 016, maximal after three vaccinations) of the same substance?
A: visit 3

Q: What about the “Number of individuals with a humoral response to the vaccine peptides, Cancer controls n = 54” value (serum antibodies [4]; [7]) of the same substance?
A: 3

Q: What about the “Percent of individuals with a humoral response to the vaccine peptides, Cancer controls n = 54” value (serum antibodies [4]; [7]) of the same substance?
A: 5.6%

Q: And the “Number of individuals with a humoral response to the vaccine peptides, Normal controls n = 30” value (serum antibodies [4])?
A: 2

Q: And the “Percent of individuals with a humoral response to the vaccine peptides, Normal controls n = 30” value (serum antibodies [4])?
A: 6.7%

Q: And the “Isotype of peptide-specific serum antibodies” value (serum antibodies [4]; subject 015)?
A: IgG3

Q: And the “Isotype of peptide-specific serum antibodies” value (serum antibodies [4]; subject 016)?
A: IgG3

Q: What about the “Number of individuals with a humoral response to the vaccine peptides, Trial subjects n = 6” value (serum antibodies [4]; [8]) of the same substance?
A: 2

Q: And the “Percent of individuals with a humoral response to the vaccine peptides, Trial subjects n = 6” value (serum antibodies [4]; [8])?
A: 33.3%

Q: And the “Number of individuals with a humoral response to the vaccine peptides, Trial subjects n = 6” value (serum antibodies [4]; trial subjects who completed four vaccinations, n = 6, detectable response at any time point considered positive, listed as peptide 5)?
A: two

Q: What about the “Induration area, DTH testing” value ([5]; patient 012) of the same substance?
A: 165 mm^2

Q: What about the “Induration area, DTH testing” value ([5]; patient 014) of the same substance?
A: 16 mm^2

Q: What about the “Induration area, DTH testing” value ([5]; patient 015) of the same substance?
A: 24 mm^2

Q: And the “Induration area, DTH testing” value ([5]; patient 016)?
A: 269 mm^2

Q: And the “Induration area, DTH testing” value ([5]; patient 017)?
A: 373 mm^2

Q: And the “Induration area, DTH testing” value ([5]; patient 018)?
A: 94 mm^2

Q: And the “Number of patients with a peptide-specific DTH response” value [5]?
A: all six

Q: What does the source list for “H-LEWMGIINPSGGSANYAPKFKGRLTMS-OH [Peptide 1, Heavy CDR2 of human anti-p53 antibody with N-terminus specificity]”?
A: Response to peptide using the polyclonal sheep sera or rabbit sera (serum antibodies [1]; polyclonal sheep sera (FIG. 2A) or rabbit sera (data not shown)): positive responses; Polyclonal sera with reactivity to peptide obtained from immunized sheep (serum antibodies [1]; two sheep): one animal did not respond; stimulation index (PBMCs [3]; [6]): 10.4; Number of individuals with a humoral response to the vaccine peptides, Cancer controls n = 54 (serum antibodies [4]; [7]): 0; Number of individuals with a humoral response to the vaccine peptides, Normal controls n = 30 (serum antibodies [4]): 3; Percent of individuals with a humoral response to the vaccine peptides, Normal controls n = 30 (serum antibodies [4]): 10%; Number of individuals with a humoral response to the vaccine peptides, Trial subjects n = 6 (serum antibodies [4]; [8]): 0; Number of individuals with a humoral response to the vaccine peptides, Trial subjects n = 6 (serum antibodies [4]; trial subjects who completed four vaccinations, n = 6, detectable response at any time point considered positive, listed as peptide 1): No patient demonstrated a response; Induration area, DTH testing ([5]; patient 012): Neg (Neg indicates that induration (if any) was less than 10 mm^2); Induration area, DTH testing ([5]; patient 014): Neg (Neg indicates that induration (if any) was less than 10 mm^2); Induration area, DTH testing ([5]; patient 015): Neg (Neg indicates that induration (if any) was less than 10 mm^2); Induration area, DTH testing ([5]; patient 016): 104 mm^2; Induration area, DTH testing ([5]; patient 017): 24 mm^2; Induration area, DTH testing ([5]; patient 018): Neg (Neg indicates that induration (if any) was less than 10 mm^2); Number of patients with a peptide-specific DTH response [5]: two
